Experimental data published in patent publication US8513264B2, “Combination therapy for the treatment of diabetes and related conditions” (Boehringer Ingelheim International GmbH, priority 2008, dated 2013).

Key:
[1] = Excretion route at therapeutic oral dose levels; assay type: in vivo; conditions: mainly excreted via the liver
[2] = system: Zucker Diabetic Fatty (ZDF) rats (ZDF/Crl-Lepr^fa); assay: Oral glucose tolerance test in overnight fasted 9-weeks old male ZDF rats; assay type: in vivo, rat; conditions: 9-weeks old ZDF rats; single oral dose 3 mg/kg 30 min before glucose load 2 g/kg; versus vehicle control
Experimental: (§1) According to a first example an oral glucose tolerance test is performed in overnight fasted 9-weeks old male Zucker Diabetic Fatty (ZDF) rats (ZDF/Crl-Lepr^fa). A pre-dose blood sample is obtained by tail bleed. Blood glucose is measured with a glucometer, and the animals are randomized for blood glucose (n=5/group). […] The animals receive an oral glucose load (2 g/kg) 30 min after compound administration. Blood glucose is measured in tail blood 15 min, 30 min, 60 min, and 90 min after the glucose challenge. Glucose excursion is quantified by calculating the reactive glucose AUC. The data are presented as mean±SEM. The two-sided unpaired Student t-test is used for statistical comparison of the control group and the active groups as well as between active groups.

[3] = system: Zucker Diabetic Fatty (ZDF) rats (ZDF/Crl-Lepr^fa); assay: Oral glucose tolerance test in overnight fasted 15-weeks old male ZDF rats (highly insulin-resistant model); assay type: in vivo, rat; conditions: 15-weeks old ZDF rats; single oral dose 3 mg/kg 30 min before glucose load 2 g/kg; versus vehicle control
Experimental: as §1, with “to a second example an” for “to a first example an”, “overnight fasted 15-weeks old male” for “overnight fasted 9-weeks old male”, “rats (ZDF/Crl-Lepr^fa). This aged ZDF rats serve as a highly insulin-resistant animal model. A pre-dose” for “rats (ZDF/Crl-Lepr^fa). A pre-dose”, “tail blood 30 min,” for “tail blood 15 min, 30 min,”, “60 min, 90 min, 120 min, and 180” for “60 min, and 90”, “min, and 180 min after” for “min, and 90 min after”

CC#CCn1c(N2CCC[C@@H](N)C2)nc2c1c(=O)n(Cc1nc(C)c3ccccc3n1)c(=O)n2C [Cpd. A, 1-[(4-methyl-quinazolin-2-yl)methyl]-3-methyl-7-(2-butyn-1-yl)-8-(3-(R)-amino-piperidin-1-yl)-xanthine]
excretion via the kidney [1]: < 7 % of the administered oral dose
reduction of glucose excursion (reactive glucose AUC) [2]: 49%
reduction of glucose excursion (reactive glucose AUC) [3]: 1%
